# According to patent US9630977B2, “Cephalosporin derivatives and pharmaceutical compositions thereof” (Legochem Biosciences, Inc., priority 2011, dated 2017):
# Legend:
# P. aeruginosa 40 = test: In vitro antibacterial activity test (broth microdilution); format: cell-based; conditions: Pseudomonas aeruginosa, 40, P. aeruginosa 40; read-out: MIC90
# Outline: (§1)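 Clinical isolates; CLSI broth microdilution; MIC90 in ug/mL; final compound range 0.0626–128 ug/mL; DMSO 2.5% (V/V) final.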
# K. pneumoniae β9 = test: as above; format: cell-based; conditions: Klebsiella pneumoniae, K. pneumoniae β9; read-out: MIC90
# Outline: as §1
# [1] = test system: A. calcoaceticus ATCC15473; test: as above; format: cell-based; conditions: Acinetobacter calcoaceticus; A. calcoaceticus ATCC15473; read-out: MIC90
# Outline: as §1
# K. pneumoniae β11 = test: as above; format: cell-based; conditions: Klebsiella pneumoniae; K. pneumoniae β11; read-out: MIC90
# Outline: as §1
# E. coli β4 = test: as above; format: cell-based; conditions: Escherichia coli, read-out: MIC90
# Outline: as §1
# K. pneumoniae β13 = test: as above; format: cell-based; conditions: Klebsiella pneumoniae, K. pneumoniae β13; read-out: MIC90
# Outline: as §1
# P. aeruginosa 43 = test: as above; format: cell-based; conditions: Pseudomonas aeruginosa; P. aeruginosa 43; read-out: MIC90
# Outline: as §1
# E. coli AG100 = test: as above; format: cell-based; conditions: Escherichia coli, AG100, E. coli AG100; read-out: MIC90
# Outline: as §1
# P. aeruginosa 6065Y = test: as above; format: cell-based; conditions: Pseudomonas aeruginosa, read-out: MIC90
# Outline: as §1
# A. baumannii 46 = test: as above; format: cell-based; conditions: Acinetobacter baumannii; A. baumannii 46; read-out: MIC90
# Outline: as §1
# K. pneumoniae β14 = test: as above; format: cell-based; conditions: Klebsiella pneumoniae, read-out: MIC90
# Outline: as §1
# E. cloacae β19 = test: as above; format: cell-based; conditions: Enterobacter cloacae, read-out: MIC90
# Outline: as §1
# A. baumannii 49 = test: as above; format: cell-based; conditions: Acinetobacter baumannii; A. baumannii 49; read-out: MIC90
# Outline: as §1
# K. pneumoniae 2011E = test: as above; format: cell-based; conditions: Klebsiella pneumoniae, 2011E, K. pneumoniae 2011E; read-out: MIC90
# Outline: as §1
# A. baumannii 52 = test: as above; format: cell-based; conditions: Acinetobacter baumannii; A. baumannii 52; read-out: MIC90
# Outline: as §1
# K. pneumoniae β10 = test: as above; format: cell-based; conditions: Klebsiella pneumoniae; K. pneumoniae β10; read-out: MIC90
# Outline: as §1
# M. catarrhalis 2524 = test: as above; format: cell-based; conditions: Moraxella catarrhalis; M. catarrhalis 2524; read-out: MIC90
# Outline: as §1
# P. aeruginosa 37 = test: as above; format: cell-based; conditions: Pseudomonas aeruginosa, 37, P. aeruginosa 37; read-out: MIC90
# Outline: as §1
# P. aeruginosa 1912E = test: as above; format: cell-based; conditions: Pseudomonas aeruginosa, 1912E, read-out: MIC90
# Outline: as §1
# P. aeruginosa R1023 = test: In vivo efficacy, whole-body infected mouse model, Ceftazidime-resistant bacteria;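 as to Survival rate: each column one dose of 5 10 20 or 40 mg/kg given sc at 1 h and 4 h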; set-up: species or system ICR mouse; conditions: for Survival rate: subcutaneous 1 h and 4 h after infection, P. aeruginosa R1023 (2 × 10^6 CFU/mouse), four days
# Procedure: Pharmaceutical efficacy of the cephalosporin derivative compounds according to the present invention was evaluated in a whole-body infected mouse model. Tables 3 and 4 show survival rate and ED50 values for the two compounds with excellent antibacterial activity with regard to an infected mouse by a drug-sensitive bacteria and a drug-resistant bacteria.
# Test animals: 3 week old male ICR mouse, weight 18˜22 g; 5 mice/group.
# Lab conditions: Temperature of 23±2° C.; humidity of 55±20%.
# Administration method: Inducing whole-body infection by bacterial solution followed by subcutaneous injection (0.2 mL) after 1 hour and 4 hours.
# Test method: Cultured bacteria were diluted with 0.9% NaCl to prepare a bacterial solution having a concentration that is 5 to 10 times of […]. 0.5 mL of bacterial solution was injected through abdominal cavity to induce whole-body infection. Test compounds were administered in four different amounts, which were designed considering in vitro MIC values of the test bacteria. After 1 hour and 4 hours, the four different amounts of the test compounds were subcutaneously administered. Survival rates were measured for four days and ED50 values were calculated according to the Probit method.
# [2] = test system: A. baumannii (6 clinical isolates); test: Antibacterial activity on representative drug-resistance bacteria: number of clinical isolates per MIC value; format: cell-based; conditions: A. baumanni (N = 6)
# Procedure: (§2) The in vitro antibacterial activity was evaluated by measuring MIC90 (ug/mL) of each of the compounds of Examples 1 to 68, which is defined as the lowest concentration of an antibiotic that will inhibit the visible growth of 90% of microorganisms after incubation as compared with a control group to which the antibiotic is not treated. MIC90 values were measured by the broth microdilution method developed by the Clinical and Laboratory Standards Institute (CLSI) (see CLSI M7-A5, Methods for Dilution Antimicrobial Susceptibility Test for Bacteria that Grow Aerobically-Fifth Edition (2000): CLSI, Villanova, Pa.).
# (§3) Test compounds each (the cephalosporin derivative compounds prepared in Examples 1 to 68) were dissolved in DMSO at the concentration of 10,240 ug/mL, were diluted by two fold with DMSO, and then were diluted by twenty fold with sterilized distilled water. The final concentration in the antibacterial activity test was in the range of […] to 128 ug/mL, and the final concentration of DMSO used as an adjuvant was 2.5% (V/V).
# [3] = test system: P. aeruginosa (16 clinical isolates); test: as above; format: cell-based; conditions: P. aeruginosa (N = 16)
# Procedure: as §2, §3
# [4] = test system: K. pneumoniae (38 clinical isolates); test: as above; format: cell-based; conditions: K. pneumomiae (N = 38)
# Procedure: as §2, §3
MIC90 (P. aeruginosa 40) [µg/mL],MIC90 (K. pneumoniae β9) [µg/mL],MIC90 [1] [µg/mL],MIC90 (K. pneumoniae β11) [µg/mL],MIC90 (E. coli β4) [µg/mL],MIC90 (K. pneumoniae β13) [µg/mL],MIC90 (P. aeruginosa 43) [µg/mL],MIC90 (E. coli AG100) [µg/mL],MIC90 (P. aeruginosa 6065Y) [µg/mL],MIC90 (A. baumannii 46) [µg/mL],MIC90 (K. pneumoniae β14) [µg/mL],MIC90 (E. cloacae β19) [µg/mL],MIC90 (A. baumannii 49) [µg/mL],MIC90 (K. pneumoniae 2011E) [µg/mL],MIC90 (A. baumannii 52) [µg/mL],MIC90 (K. pneumoniae β10) [µg/mL],MIC90 (M. catarrhalis 2524) [µg/mL],MIC90 (P. aeruginosa 37) [µg/mL],MIC90 (P. aeruginosa 1912E) [µg/mL],Structure (SMILES),further results
2,1,2,64,2,1,4,1,8,8,8,8,> 128,2,128,1,2,8,2,CC(C)(O/N=C(\C(=O)N[C@@H]1C(=O)N2C(C(=O)[O-])=C(/C=C/C[n+]3cnc(N)c(NC(=O)CCNC(=O)c4cc(=O)c(O)c[nH]4)c3)CSC12)c1csc(N)n1)C(=O)O (stereo partly shown) [Compound 13],–
0.5,< 0.0625,1,64,< 0.0625,< 0.0625,1,< 0.0625,2,4,4,2,> 128,1,> 128,< 0.0625,0.25,0.25,1,CC(C)(O/N=C(\C(=O)N[C@@H]1C(=O)N2C(C(=O)[O-])=C(/C=C/C[n+]3cnc(N)c(NCCCCNC(=O)c4cc(=O)c(O)cn4O)c3)CSC12)c1csc(N)n1)C(=O)O (stereo partly shown) [Compound 23],–
–,–,–,–,–,–,–,–,–,–,–,–,–,–,–,–,–,–,–,"C[C@@H](O)[C@H]1C(=O)N2C(C(=O)O)=C(S[C@@H]3CN[C@H](CNS(N)(=O)=O)C3)[C@H](C)[C@H]12 [Doripenem, reference compound]","ED50 (P. aeruginosa R1023; Pseudomonas aeruginosa, sc, Probit method, subcutaneous, mouse infected by Ceftazidime-resistant P. aeruginosa R1023): 28 mg/kg; Survival rate (P. aeruginosa R1023; administered amount 5 mg/kg): 0%; Survival rate (P. aeruginosa R1023; administered amount 10 mg/kg): 20%; Survival rate (P. aeruginosa R1023; administered amount 20 mg/kg): 20%; Survival rate (P. aeruginosa R1023; administered amount 40 mg/kg): 80%; number of clinical isolates that showed the respective MIC value ([2]; MIC 16 ug/mL): 1; number of clinical isolates that showed the respective MIC value ([2]; MIC >16 ug/mL): 5; number of clinical isolates that showed the respective MIC value ([3]; MIC 4 ug/mL): 1; number of clinical isolates that showed the respective MIC value ([3]; MIC 8 ug/mL): 1; number of clinical isolates that showed the respective MIC value ([3]; MIC 16 ug/mL): 5; number of clinical isolates that showed the respective MIC value ([3]; MIC >16 ug/mL): 9; number of clinical isolates that showed the respective MIC value ([4]; MIC 0.0625 ug/mL): 1; number of clinical isolates that showed the respective MIC value ([4]; MIC 0.125 ug/mL): 6; number of clinical isolates that showed the respective MIC value ([4]; MIC 0.25 ug/mL): 3; number of clinical isolates that showed the respective MIC value ([4]; MIC 0.5 ug/mL): 5; number of clinical isolates that showed the respective MIC value ([4]; MIC 1 ug/mL): 6; number of clinical isolates that showed the respective MIC value ([4]; MIC 2 ug/mL): 5; number of clinical isolates that showed the respective MIC value ([4]; MIC 8 ug/mL): 4; number of clinical isolates that showed the respective MIC value ([4]; MIC 16 ug/mL): 2; number of clinical isolates that showed the respective MIC value ([4]; MIC <0.0625 ug/mL): 6"
